Our source for the IC50 values is patent US20160193206A1, “BET-PROTEIN-INHIBITING DIHYDROPYRIDOPYRAZINONES” (BAYER PHARMA AKTIENGESELLSCHAFT, priority 2012, published 2016).

Test [1] has as its target T1, BRD4 bromo domain 1 [BRD4(1)] (Homo sapiens, UniProt O60885).
T1 construct: N-terminally His6-tagged BRD4(1) (amino acids 67-152); made in house; host or cells: E. coli
Nature of the test: BRD4(1)/acetylated peptide H4 binding assay (TR-FRET). As to conditions: inhibition of interaction between His6-tagged BRD4(1) (amino acids 67-152) and acetylated histone H4 peptide. Summed up: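 TR-FRET measured displacement of a biotinylated tetra-acetylated H4 peptide from His6-BRD4(1) (aa 67-152, E. coli-expressed, typically 10 nM) in HEPES pH 7.5 buffer. Compounds were tested at 11 concentrations (0.1 nM–20 μM), with 10 min preincubation, then 1 h at 22 °C and ≥3 h at 4 °C. The 665/620 nm ratio gave IC50 by 4-parameter fit.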

In another test the test system is MOLM-13 cell line. Nature of the test: MOLM-13 cell proliferation assay (alamarBlue). The test is classed as cell-based. Conditions: Homo sapiens, inhibition of proliferation of MOLM-13 cells (acute myeloid leukaemia), 96 hours incubation. On the procedure: In accordance with the invention, the substances were tested for their ability to inhibit the proliferation of the MOLM-13 cell linie (Deutsche Sammlung für Mikroorganismen und Zellkulturen [German Collection of Microorganisms and Cell Cultures], ACC 554; acute myeloid leukaemia). Cell viability was determined by means of the alamarBlue® reagent (Invitrogen) in a Victor X3 Multilabel Reader (Perkin Elmer). The excitation wavelength was 530 nm and the emission wavelength […].
The MOLM-13 cells were sown at a density of 4000 cells/well in 100 μl of growth medium on 96-well microtitre plates. After overnight incubation at 37° C., the fluorescence values were determined (CI values). The plates were then treated with various substance dilutions and incubated at 37° C. for 96 hours. Subsequently, the fluorescence values were determined (CO values). For the data analysis, the CI values were subtracted from the CO values and the results were compared between cells which had been treated with various dilutions of the substance or only with buffer solution. The IC50 values (substance concentration needed for 50% inhibition of cell proliferation) were calculated therefrom.
In general terms: The colour change of resazurin is a common sign of viable cells or microbes.

Test [2] deals with T2, BRD4 bromo domain 2 [BRD4(2)] (Homo sapiens, UniProt O60885).
T2 construct: N-terminally His6-tagged BRD4(2) (amino acids 357-445); made in house; host or cells: E. coli
The experiment in a line: BRD4(2)/acetylated peptide H4 binding assay (TR-FRET). As to conditions: inhibition of interaction between His6-tagged BRD4(2) (amino acids 357-445) and acetylated histone H4 peptide. In a few lines:
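TR-FRET displacement of biotinylated tetra-acetylated H4 peptide from His6-BRD4(2) (aa 357-445, E. coli-expressed), 100 nM final, in HEPES pH 7.5 buffer; 11 compound concentrations 0.1 nM-20 μM, 10 min preincubation, then 1 h 22 °C plus ≥3 h 4 °C. 665/620 ratio read; IC50 by 4-parameter fit.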

Regarding `C[C@@H]1C(=O)N(C)c2ccc(Nc3ccc(S(=O)(=O)NCCN(C)C)cc3)nc2N1C1CCOCC1` [Example 24, N-[2-(dimethylamino)ethyl]-4-{[(3R)-1,3-dimethyl-2-oxo-4-(tetrahydro-2H-pyran-4-yl)-1,2,3,4-tetrahydropyrido[2,3-b]pyrazin-6-yl]amino}benzene-sulphonamide], the IC50 in test [1] came to 81 nM; in the test on MOLM-13 cell line, 554 nM; in test [2], 76 nM.
On to `C[C@@H]1C(=O)N(C)c2ccc(Nc3ccc(S(=O)(=O)NCc4ccccn4)cc3)nc2N1C1CCOCC1` [Example 25, 4-{[(3R)-1,3-dimethyl-2-oxo-4-(tetrahydro-2H-pyran-4-yl)-1,2,3,4-tetrahydropyrido[2,3-b]pyrazin-6-yl]amino}-N-(pyridin-2-ylmethyl)benzene-sulphonamide], for which the IC50 was determined as 50 nM in test [1], 388 nM in the test on MOLM-13 cell line and 94 nM in test [2].
For `COc1cc(Nc2ccc3c(n2)N(C2CCOCC2)[C@H](C)C(=O)N3C)ccc1S(=O)(=O)N1CCN(C)CC1` [Example 26, (3R)-6-({3-methoxy-4-[(4-methylpiperazin-1-yl)sulphonyl]phenyl}amino)-1,3-dimethyl-4-(tetrahydro-2H-pyran-4-yl)-3,4-dihydropyrido[2,3-b]pyrazin-2(1H)-one], in that order: 70 nM, 296 nM and 67 nM.
On to `C[C@@H]1C(=O)N(C)c2ccc(Nc3ccc(S(=O)(=O)N(C)C)cc3)nc2N1C1CCOCC1` [Example 27, 4-{[(3R)-1,3-dimethyl-2-oxo-4-(tetrahydro-2H-pyran-4-yl)-1,2,3,4-tetrahydropyrido[2,3-b]pyrazin-6-yl]amino}-N,N-dimethylbenzene-sulphonamide], for which the IC50 in test [1] was determined as 32 nM; in the test with MOLM-13 cell line, 202 nM; in test [2], 38 nM.
For `C[C@@H]1C(=O)N(C)c2ccc(Nc3ccc(C(=O)NC4CN(C)C4)cc3)nc2N1C1CCCCC1` [Example 30, 4-{[(3R)-4-Cyclohexyl-1,3-dimethyl-2-oxo-1,2,3,4-tetrahydropyrido[2,3-b]pyrazin-6-yl]amino}-N-(1-methylazetidin-3-yl)benzamide], in that order: 119 nM, 293 nM and 140 nM.
For `COc1cc(C(=O)N[C@H]2CC[C@H](N3CCN(CC4CC4)CC3)CC2)ccc1Nc1ccc2c(n1)N(Cc1ccccc1)[C@H](C)C(=O)N2C` [Example 34, 4-{[(3R)-4-Benzyl-1,3-dimethyl-2-oxo-1,2,3,4-tetrahydropyrido[2,3-b]pyrazin-6-yl]amino}-N-{trans-4-[4-(cyclopropylmethyl)piperazin-1-yl]cyclohexyl}-3-methoxybenzamide], in that order: 256 nM, 338 nM and 104 nM.
Regarding `Cc1cc(C(=O)N[C@H]2CC[C@H](N3CCN(CC4CC4)CC3)CC2)ccc1Nc1ccc2c(n1)N(C1CCOCC1)[C@H](C)C(=O)N2C` [Example 37, N-{trans-4-[4-(Cyclopropylmethyl)piperazin-1-yl]cyclohexyl}-4-{[(3R)-1,3-dimethyl-2-oxo-4-(tetrahydro-2H-pyran-4-yl)-1,2,3,4-tetrahydropyrido[2,3-b]pyrazin-6-yl]amino}-3-methylbenzamide], the IC50 in test [1] came out at 347 nM; in the test on MOLM-13 cell line it was 859 nM; in test [2] it was 306 nM.
For `COc1cc(C(=O)NC2CCC(=O)CC2)ccc1Nc1ccc2c(n1)N(C1CCOCC1)[C@H](C)C(=O)N2C` [Example 38, 4-{[(3R)-1,3-Dimethyl-2-oxo-4-(tetrahydro-2H-pyran-4-yl)-1,2,3,4-tetrahydropyrido[2,3-b]pyrazin-6-yl]amino}-3-methoxy-N-(4-oxocyclohexyl)benzamide], in that order: 194 nM, 51 nM and 79 nM.
For `C[C@@H]1C(=O)N(C)c2ccc(Nc3ccc(C(=O)N4CC5(COC5)C4)cc3)nc2N1Cc1ccccc1` [Example 41, (3R)-4-Benzyl-1,3-dimethyl-6-{[4-(2-oxa-6-azaspiro[3.3]hept-6-ylcarbonyl)phenyl]amino}-3,4-dihydropyrido[2,3-b]pyrazin-2(1H)-one], in that order: 122 nM, 191 nM and 109 nM.
For `C[C@@H]1C(=O)N(C)c2ccc(Nc3ccc(C(=O)NC4CCC(O)CC4)cc3)nc2N1Cc1ccccc1` (stereo partly drawn) [Example 42, 4-{[(3R)-4-Benzyl-1,3-dimethyl-2-oxo-1,2,3,4-tetrahydropyrido[2,3-b]pyrazin-6-yl]amino}-N-(4-hydroxycyclohexyl)benzamide], in that order: 156 nM, 326 nM and 99 nM.
`COc1cc(C(=O)N2CCN(C)CC2)ccc1Nc1ccc2c(n1)N(C1CCOCC1)[C@H](C)C(=O)N2C` [Example 45, (3R)-6-({2-Methoxy-4-[(4-methylpiperazin-1-yl)carbonyl]phenyl}amino)-1,3-dimethyl-4-(tetrahydro-2H-pyran-4-yl)-3,4-dihydropyrido[2,3-b]pyrazin-2(1H)-one]: the IC50 came out at 77 nM in test [1], 539 nM in the test on MOLM-13 cell line and 86 nM in test [2].
Regarding `C[C@@H]1C(=O)N(C)c2ccc(Nc3ccc(C(=O)NCCN(C)C)cc3)nc2N1C1CCOCC1` [Example 48, N-[2-(Dimethylamino)ethyl]-4-{[(3R)-1,3-dimethyl-2-oxo-4-(tetrahydro-2H-pyran-4-yl)-1,2,3,4-tetrahydropyrido[2,3-b]pyrazin-6-yl]amino}benzamide], the IC50 was found to be 103 nM in test [1], 583 nM with MOLM-13 cell line and 167 nM in test [2].
`C[C@@H]1C(=O)N(C)c2ccc(Nc3ccc(C(=O)NC4CN(C)C4)cc3)nc2N1C1CCOCC1` [Example 50, 4-{[(3R)-1,3-Dimethyl-2-oxo-4-(tetrahydro-2H-pyran-4-yl)-1,2,3,4-tetrahydropyrido[2,3-b]pyrazin-6-yl]amino}-N-(1-methylazetidin-3-yl)benzamide]: the IC50 in test [1] amounted to 145 nM; in the test with MOLM-13 cell line, 576 nM; in test [2], 111 nM.
As to `C[C@@H]1C(=O)N(C)c2ccc(Nc3ccc(C(=O)NCCN4CCN(C)CC4)cc3)nc2N1C1CCOCC1` [Example 51, 4-{[(3R)-1,3-Dimethyl-2-oxo-4-(tetrahydro-2H-pyran-4-yl)-1,2,3,4-tetrahydropyrido[2,3-b]pyrazin-6-yl]amino}-N-[2-(4-methylpiperazin-1-yl)ethyl]benzamide], the values for the IC50 (in test [1]; in the test on MOLM-13 cell line; in test [2]) were 138 nM, 507 nM and 219 nM, respectively.
The corresponding values for `COc1cc(C(=O)N2CCC(N3CCCCC3)CC2)ccc1Nc1ccc2c(n1)N(C1CCOCC1)[C@H](C)C(=O)N2C` [Example 53, (3R)-6-{[4-(1,4′-Bipiperidin-1′-ylcarbonyl)-2-methoxyphenyl]amino}-1,3-dimethyl-4-(tetrahydro-2H-pyran-4-yl)-3,4-dihydropyrido[2,3-b]pyrazin-2(1H)-one] are 90 nM, 249 nM and 94 nM.
As for `COc1cc(C(=O)NC2CN(C)C2)ccc1Nc1ccc2c(n1)N(C1CCOCC1)[C@H](C)C(=O)N2C` [Example 55, 4-{[(3R)-1,3-Dimethyl-2-oxo-4-(tetrahydro-2H-pyran-4-yl)-1,2,3,4-tetrahydropyrido[2,3-b]pyrazin-6-yl]amino}-3-methoxy-N-(1-methylazetidin-3-yl)benzamide], the 50% inhibitory concentration (IC50) in test [1] came to 215 nM; in the test on MOLM-13 cell line, 668 nM; in test [2], 128 nM.
As to `C[C@@H]1C(=O)N(C)c2ccc(Nc3ccc(C(=O)N[C@H]4CC[C@H](N5CCN(CC6CC6)CC5)CC4)cc3)nc2N1C1CCOCC1` [Example 57, N-{trans-4-[4-(Cyclopropylmethyl)piper-azin-1-yl]cyclohexyl}-4-{[(3R)-1,3-dimethyl-2-oxo-4-(tetrahydro-2H-pyran-4-yl)-1,2,3,4-tetrahydropyrido[2,3-b]pyrazin-6-yl]amino}benzamide], the figures for the IC50 (in test [1]; in the test on MOLM-13 cell line; in test [2]) were 139 nM, 366 nM and 156 nM, respectively.
Turning to `C[C@@H]1C(=O)N(C)c2ccc(Nc3ccc(C(=O)NC4CCN(C)CC4)cc3)nc2N1C1CCOCC1` [Example 58, 4-{[(3R)-1,3-Dimethyl-2-oxo-4-(tetrahydro-2H-pyran-4-yl)-1,2,3,4-tetrahydropyrido[2,3-b]pyrazin-6-yl]amino}-N-(1-methylpiperidin-4-yl)benzamide], the concentration for half-maximal inhibition (IC50) in test [1] was 111 nM; with MOLM-13 cell line, 339 nM; in test [2] it was 134 nM.

As a reminder, the IC50 is the midpoint of a concentration-inhibition curve. High values mean a need for much substance, low ones inhibition by little substance.
